Reference: US8173428B2, “LNA oligonucleotides and the treatment of cancer” (Santaris Pharma A/S, priority 2004, dated 2012)
Oligonucleotides are written 5' to 3', each unit as a sugar letter and its base; * is a phosphorothioate linkage, no mark a phosphodiester; rarer units and linkages stand in square brackets, end groups in braces. Plain capitals give the bases only. l = locked nucleic acid (LNA); [5mC] = 5-methylcytosine; d = 2'-deoxy (DNA)

Experiments:
[1] = tested on: Survivin full length, Survivin2B and SurvivinΔex3 mRNA; assay: Survivin splice variant mRNA expression by real-time PCR in 15PC3 cells; format: cell-based, human; settings: 5 nM, normalised to GAPDH, relative to mock
Experimental: Cell culturing and transfections: 15PC3 cells were seeded in 12-well plates and grown for two days at 37° C. (5% CO2) in DMEM supplemented with 10% FBS, Glutamax I and Gentamicin. When the cells were 60-70% confluent, they were transfected in duplicates with different concentrations of oligonucleotides (0.2-25 nM) using Lipofectamine 2000 (10 μg/ml). Transfections were carried out essentially as described by Dean et al. (1994, JBC 269:16416-16424). In short, cells were incubated for 10 min. with Lipofectamine in OptiMEM followed by addition of oligonucleotide to a total volume of 0.5 ml transfection mix per well. […]
To determine the relative Survivin mRNA level in oligonucleotide treated and untreated cells, the generated cDNA was used in quantitative PCR analysis using an iCycler from BioRad. The cDNA was diluted 5-fold and 8 μl was mixed with 52 μl Taqman probe master mix containing 30 μl Platinum Quantitative PCR SuperMix UDG 2×PCR master mix (Invitrogen), 3 μl 20× Taqman probe and primer mix (forward primer: 5′[…] (SEQ ID NO:29), final 0.9 μM. Reverse primer: 5′[…] (SEQ ID NO:30), final 0.6 μM and taqman probe: FAM-[…]-TAMRA (SEQ ID NO:31), final 0.1 μM) and 19 μl H2O. […]
The primers and probe were obtained from Proligonucleotide (France). […] Relative quantities of Survivin mRNA were determined from the calculated threshold cycle using the iCycler IQ Real Time Detection System software.

15PC3 cells = assay: Cell cycle analysis by propidium iodide staining and FACS; format: cell-based, human; settings: transfected 15PC3 cells exposed to different concentrations of Taxol
Experimental: Cell culturing: Human prostate cancer 15PC3 cells (kindly provided by Dr. F Baas, Neurozintuigen Laboratory, AMC, The Netherlands) were seeded to a density of 8×10E5 cells in T75-flasks and grown for two days at 37° C. and 5% CO2 in DMEM supplemented with 10% FBS, Glutamax and Gentamicin. Two days following seeding cells were transfected with 2-10 nM SEQ ID NO. 2 using Lipofectamine at a final conc. of 7.5 μg/ml. Transfections were carried out as described by Dean et al. (1994, JBC 269 p. 16416 16424). In short cells were incubated with Lipofectamine diluted in OptiMEM for 7-10 min followed by the addition of the oligonucleotide to total volume of 8.7 ml per T75 flask. 4 hours following transfection cells were washed in OptiMEM and grown at 37° C. for 12-96 hours in complete growth medium with or without the addition of 2-100 nM Taxol (Sigma Aldrich). Cells were harvested for either mRNA extraction, Caspase 3/7 assay or fixed, stained with PI and analysed by FACS analysis.
Cell culturing and transfections: As in example 13.
Fixation and PI staining: Cells were washed in PBS, harvested and resuspended in 100 μl in ice cold PBS. 900 μl ice cold 70% […] and fixed cells were kept at −20 until use. […]
SEQ ID NO. 2 transfected 15PC3 cells were exposed to different concentrations of Taxol and analysed by Propidium Iodide staining and subsequent FACS analysis (FIG. 7a-c). […]

[2] = tested on: PC-3 human prostate cancer cells; assay: PC3 xenograft tumour growth inhibition in nude mice; format: in vivo, Balb/cA-nu mice; settings: combined with Taxol, dose schedules A and B, after 27 days, versus single agent treatment or saline
Experimental: Model: PC-3 human prostate cancer cells (ECACC) are mixed with Matrigel and injected s.c. into both flanks of female Balb/cA-nu mice on Day 0.
Dosing: Saline solution of SEQ ID NO. 2 according to schedule, 2 mg/ml working solution, dosing volume 10 ml/kg; Taxol was used in the clinical formulation. The animals were dosed according to the average group weight on Day 0.
Administration: Oligonucleotides i.p. (see FIG. 8) or intratumoural (see FIG. 9), Taxol i.v., all according to schedule
Observations: Mortality (daily), body weight (twice per week),
Tumour volume: During the experiment, tumour volume is measured twice per week and calculated according to the formula (L×D^2×0.5), where L represents the largest diameter and D the tumour diameter perpendicular to L (mm).
Antitumour activity: Mean tumour weight of treated tumours will be compared with control group.
End of study: The animals will be sacrificed by cervical dislocation. Tumours, livers and spleens will be weighed.

With “5′-^MeCsTs^MeCsAsastscscsastsgsgs^MeCsAsGsc-3′ (l[5mC]*lT*l[5mC]*lA*dA*dT*dC*dC*dA*dT*dG*dG*l[5mC]*lA*lG*dC) [SEQ ID NO. 2]” the “Expression of the 3 isoforms of Survivin mRNA” value [1] was “able to down-regulate all expressed isoforms of human Survivin”, the “Cells trapped in the G2 or G4 phase, combination with Taxol” value (15PC3 cells) was “increasing amount of cells trapped in the G2 or even G4 phase” and the Tumour weight [2] was “Tumour weight reduction”.
